Data published in PMC8241045, “Improving anti-tumor activity of sorafenib tosylate by lipid- and polymer-coated nanomatrix” (Drug Delivery, 2017).
≈ marks a conversion by molar mass, not a printed value. Where a name gives a salt, the structure may show the parent alone. Read-outs that look alike come from different tables or passages of the source.

What was measured:
[1] = Solubility in distilled water (shake-flask, HPLC); type: physicochemical; conditions: 37 °C, thermodynamic from solid
[2] = very low aqueous solubility in GI fluids, high permeability; cited from earlier work
MDA-MB-231 cells = experiment: In vitro cytotoxicity, sulforhodamine B assay; type: cell-based; conditions: Homo sapiens, 48 h, SRB assay, n = 3
Description: The cytotoxicity of MSNM@SFN against MDA-MB-231 cells was measured by sulforhodamine B assay (SRB assay). Briefly, MDA-MB-231 cells (1 × 10^4 cells per well) were seeded in a 96-well plate and grown in medium for 24 h. Then, the cells were treated with cell culture medium containing the different amounts of MSNM@SFN for 48 h at 37 °C. The cell viability was determined by SRB assay. Absorbance was measured at 540 nm using a 96-well plate reader (model 680; Bio-Rad Laboratories, Hercules, CA). The survival percentages were calculated using the formula: survival % = (A540 nm for the treated cells/A540 nm for the control cells) × 100%, where A540 nm is the absorbance value. Each assay was carried out in triplicate. Finally, dose–effect curves were constructed and IC50 values were calculated.

[3] = cited from earlier work

Question: For CC(=O)O[C@H]1C(=O)[C@@]2(C)[C@H]([C@H](OC(=O)c3ccccc3)[C@]3(O)C[C@H](OC(=O)[C@H](O)[C@@H](NC(=O)c4ccccc4)c4ccccc4)C(C)=C1C3(C)C)[C@]1(OC(C)=O)CO[C@@H]1C[C@@H]2O [PTX, paclitaxel], which solubility at 48 h ([1]; water, read-out: Solubility of PTX) is on record?
Answer: 0.17 ± 0.02 µg/mL (≈ 0.199 µM)

Question: With CCc1c2c(nc3ccc(O)cc13)-c1cc3c(c(=O)n1C2)COC(=O)[C@]3(O)CC [SN38, 7-ethyl-10-hydroxycamptothecin] as the compound, how does the solubility at 48 h ([1]; water, read-out: Solubility of SN38) read?
Answer: < 0.01 µg/mL

Question: What does the source list for CNC(=O)c1cc(Oc2ccc(NC(=O)Nc3ccc(Cl)c(C(F)(F)F)c3)cc2)ccn1 [SFN, Sorafenib tosylate]?
Answer: BCS class [2]: BCS II; IC50 (MDA-MB-231 cells): 5.84 ± 0.17 µM; solubility at 48 h ([1]; 48 h, read-out: Solubility of SFN): < 0.1 µg/mL; LogP [3]: 3.8
